From PMC3411647 (PLoS ONE, 2012)

Columns and labels:
[1] = molecular target: T1, H3R (Homo sapiens, UniProt Q9Y5N1); assay: H3R internalization, cell-surface ELISA in HEK-293 cells stably transfected with Flag-H3R; type: cell-based; settings: 100 µM, 45 min at 37°C
T1 construct: expressed in transfected cells
Description: ELISA data are expressed as the percentage of receptors detected on the surface of agonist-untreated cells expressing H3R. Error bars represent the SEM for four replicates.
The cell surface expression of H3R was quantitatively assessed by ELISA and performed as described previously. Briefly, HEK-293 cells stably transfected with the pCMV-H3R construct were seeded in 48-well dishes coated with poly-L-lysine. […] Medium was aspirated and the cells were washed once with Tris-buffered saline (TBS). […] Cells were then incubated for 1 h with an alkaline phosphatase-conjugated monoclonal antibody directed against the Flag epitope and diluted 1∶1,000. Cells were washed 3 times, and antibody binding was visualized by adding 0.25 mL of an alkaline phosphatase substrate (Bio-Rad). Development was stopped by adding 0.1 mL of the substrate to a 96-well microtiter plate containing 0.1 mL of 0.4 M NaOH.

[2] = molecular target: T2, rat brain H3R (Rattus norvegicus, UniProt Q9QYN8); assay: Competitive/saturation binding with [3H]N-α-methylhistamine, rat cerebral cortex membranes; settings: 2 nM [3H]N-α-methylhistamine, rat cerebral cortex membranes
T2 construct: from tissue; host or cells: rat cerebral cortex membranes
T2 sequence (Q9QYN8 whole entry): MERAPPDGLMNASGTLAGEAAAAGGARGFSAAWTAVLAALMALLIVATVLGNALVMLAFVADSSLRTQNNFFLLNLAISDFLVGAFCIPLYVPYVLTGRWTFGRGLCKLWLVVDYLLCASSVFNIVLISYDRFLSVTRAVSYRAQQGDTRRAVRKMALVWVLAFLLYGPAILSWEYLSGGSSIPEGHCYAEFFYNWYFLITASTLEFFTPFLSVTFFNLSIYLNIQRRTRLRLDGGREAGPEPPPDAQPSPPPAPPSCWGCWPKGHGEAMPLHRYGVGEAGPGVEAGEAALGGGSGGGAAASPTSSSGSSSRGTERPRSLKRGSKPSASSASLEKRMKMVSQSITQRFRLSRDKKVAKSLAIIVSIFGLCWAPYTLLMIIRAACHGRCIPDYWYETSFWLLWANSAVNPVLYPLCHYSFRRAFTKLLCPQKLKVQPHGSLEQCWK
Description: Figure 4 Competition binding experiments with [^3H]-N-α-methylhistamine. […] The presented data are the means ±SE of values from a single experiment performed in duplicate and are representative of three to six separate experiments.
The membranes (50 µg of protein) were incubated with [^3H] N-α-methylhistamine at various concentrations (from 0.03 nM to 50 nM) for saturation binding assays. For competitive binding assays, the membranes (50 µg of protein) were incubated with 10 nM [^3H] N-α-methylhistamine for recombinant hH3R or 2nM [^3H] N-α-methylhistamine for rat brain H3R in the presence of various compound concentrations in the buffer (50 mM Tris–HCl, pH 7.4). […] Following three washes, the membrane-bound radioactivity was measured on a Topcount (PerkinElmer) at 20°C. […] IC50 values were converted to Ki values using the Cheng-Prusoff equation. Each experiment was performed in duplicate and repeated three to six times. All data were analyzed by nonline arregression using GraphPad Prism version 4.0 software.

[3] = molecular target: T3, mouse H3R (Mus musculus, UniProt P58406); assay: ERK1/2 phosphorylation in neonatal mouse cortical neuron cultures; type: cell-based; settings: 5 µM
T3 construct: endogenous in cells; host or cells: primary cortical neurons of neonatal ICR mice
T3 sequence (P58406 whole entry): as the sequence (Q9QYN8 whole entry) above, with T15A, A286T, A290G, R387H, I389V counted along it
Description: Figure 8 Phosphorylation of ERK1/2 induced by ZEL-H16 in mouse cortical neurons. A, Time-dependent phosphorylation of ERK1/2 induced by 5 µM ZEL-H16 in neonatal mouse cortical neuron cultures. B, The phosphorylation of ERK1/2 induced by 50 µM ZEL-H16 for 20 min was mostly abolished by 100 ng/mL PTX or 10 µM thioperamide. Signals were quantified by densitometric image analysis and p-ERK was normalized to a loading control (ERK). The signal at each point is expressed as the percentage of the maximal p-ERK signal induced by ZEL-H16. Data represent the mean ±SE of three independent experiments.
Neuronal cortical cultures were prepared from neonatal ICR mice. Cerebral cortices were dissociated in sterile Dulbecco’s phosphate-buffered saline (D-PBS; Sigma-Aldrich, St. Louis, MO), and the neurons were isolated in the same medium containing 0.5% trypsin at 37°C for 10 min. After centrifugation, dissociated neurons were re-suspended in neurobasal medium (NBM; Gibco, Carlsbad, CA) supplemented with 2% B-27 and 0.5 mmol/L-glutamine (Gibco, Carlsbad, CA) and then plated on 48-well plates at a density of approximately 1.3×10^6 per well. After 7 days of culture, the neurons were serum starved for approximately 3 h prior to drug treatment. […]

[4] = molecular target: T4, H3R-EGFP (Homo sapiens, UniProt Q9Y5N1); assay: Recycling of internalized H3R-EGFP to the cell surface, confocal microscopy; type: cell-based; settings: 20 µM ZEL-H16 or 500 µM histamine for 30 min, cycloheximide 100 µg/ml
T4 construct: expressed in transfected cells
T4 sequence (Q9Y5N1 whole entry): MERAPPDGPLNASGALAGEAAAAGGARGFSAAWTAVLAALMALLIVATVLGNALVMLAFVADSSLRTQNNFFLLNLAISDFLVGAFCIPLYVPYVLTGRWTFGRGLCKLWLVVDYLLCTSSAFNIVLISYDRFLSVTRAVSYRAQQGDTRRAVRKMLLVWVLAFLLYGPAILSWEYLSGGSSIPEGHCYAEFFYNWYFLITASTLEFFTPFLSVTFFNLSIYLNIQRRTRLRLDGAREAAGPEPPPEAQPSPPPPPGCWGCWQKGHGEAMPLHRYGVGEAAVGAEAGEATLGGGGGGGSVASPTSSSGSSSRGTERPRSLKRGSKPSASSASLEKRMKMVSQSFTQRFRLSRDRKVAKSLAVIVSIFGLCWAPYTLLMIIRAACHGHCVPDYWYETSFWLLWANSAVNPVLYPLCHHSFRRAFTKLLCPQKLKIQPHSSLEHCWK
Description: Figure 6 Localization of internalized H3R-EGFP stably expressed in HEK-293 cells and recycling of internalized H3R to the cell surface. […] All pictures shown are representative of at least three independent experiments.
HEK-293 cells stably expressing H3R-EGFP were seeded in covered glass-bottom 6-well plates. […] After fixing the cells with 4% paraformaldehyde for 10 min, cells were mounted in mounting reagent (DTT/PBS/glycerol). Confocal images were taken on a Zeiss LSM 510 microscope with an attached Axiovert 200 microscope and LSM5 computer system. Images were collected using QED camera software and processed with Adobe Photoshop.

[5] = molecular target: T1, H3R; assay: ERK1/2 phosphorylation (Western blot) in HEK-293 cells stably expressing H3R; type: cell-based
Description: Figure 7 Phosphorylation of ERK1/2 induced by ZEL-H16 in H3R-expressing HEK-293 cells. […] Signals were quantified by densitometric image analysis and p-ERK was normalized to a loading control (ERK). […] Concentration -dependent phosphorylation signals were quantified by densitometric analysis and p-ERK levels were normalized to total ERK levels. […] C, The phosphorylation of ERK1/2 induced by ZEL-H16 could be entirely abolished by co-incubation with H3R antagonist thioperamide (***p<0.001). Data represent the mean ±SE of three independent experiments.
HEK-293 cells stably expressing human H3R were grown in a 6-well plate and were serum starved 2 h in serum-free culture medium prior to stimulation. Cells were stimulated with the indicated H3R ligands at the designated concentrations. Incubations were stopped at the indicated times by removing the stimulation medium by aspiration. The cells were washed in ice-cold PBS and subsequently lysed in 100 µl of lysis buffer [20 mM HEPES (pH 7.5), 10 mM EDTA, 150 mM NaCl, 1% Triton X-100, and one tablet of complete protease inhibitor (Roche, Indianapolis, IN) per 50 mL] at 4°C on a rocker for 30 min. The lysates were centrifuged and separated by sodium dodecyl sulfate-polyacrylamide (12%) gel electrophoresis (SDS-PAGE) and blotted onto polyvinylidene difluoride membranes. Membranes were blocked for 1 h at room temperature in TBST (10 mmol/L Tris, 150 mmol/L NaCl, 0.1% Tween-20, pH 8.0) buffer containing 5% (v/w) skim milk. Membranes were probed overnight with primary antibodies against p-ERK1/2 (1∶1,000; Cell Signaling, Danvers, MA) in TBST containing 5% (v/w) BSA, and then probed with horseradish peroxidase-labeled secondary antibody (1∶5,000) for 1 h at room temperature in TBST containing 5% (v/w) milk powder. Immunoreactivity was detected by ECL assays. The blots were stripped and reprobed using antibodies against total ERK1/2 (1∶2,000) (Cell Signaling, Danvers, MA) as a control.

T1 sequence (Q9Y5N1 whole entry): as above

With c1ccc2c(c1)c(CCCN1CCCCC1)cn2CCCN1CCCCC1 [ZEL-H16] the “loss in the expression of the receptors on the cell surface (internalization)” value [1] was 50%, the Ki [2] was 4.36 ± 2 nM and the “time of maximal ERK activation after stimulation” value [3] was 20 min. The “time for internalized H3R to recycle to the cell surface after agonist removal” value [4] was ≤ 3 h, the EC50 ([5]; 10 nM to 100 µM, Western-blot densitometry) was 1100 ± 100 nM and the “time of maximal ERK1/2 activation after stimulation” value ([5]; 1 µM) was 2 min. It also gave an Emax at 1 µM ([5]; HEK293, read-out: maximal activation of ERK1/2 relative to maximal activation induced by histamine, 1 µM) of ~50%.
